Laboratory results published in US11939295B1, “6-(3-hydroxyphenyl)-2-methoxy-4-(3-methylphenyl)nicotinonitrile as an antimicrobial compound” (KING FAISAL UNIVERSITY, priority 2023, dated 2024).

Columns and labels:
Format in all cases: cell-based
Conditions in all cases: after 10, 20, 40 and 60 minutes at all dilutions 1:100, 1:200, 1:400, 1:800
Staphylococcus aureus = assay: Antimicrobial testing by agar dilution, Staphylococcus aureus
Procedure: (§1) The antimicrobial properties of the 6-(3-hydroxyphenyl)-2-methoxy-4-(3-methylphenyl)nicotinonitrile (4) were studied by the method of agar dilution. Test solutions of each compound were prepared in concentration of 1% using dimethylformamide as a solvent then they are diluted in physiological solution to obtain the final experimental dilutions 1:100, 1:200, 1:400, 1:800. The effect of these substances were compared with furacillin in a controllable study. The testing microbes used were gram positive bacteria Staphylococcus aureus, gram negative bacteria Escherichia coli, Pseudomonas aeruginosa and Candida albicans fungi were taken. The experiments used for this survey were meat-pentonlu agar (EPA) for cultivation of bacteria and Saburo environment for fungi. Each experiment used 1 ml of test solution on each plate 500 min. Add 2 drops of emulsified with microbes feel. All experimental samples were taken from the agar after 10, 20, 40, 60 minutes in the environment on the basis of Patrk planted. Bacteria were cultivated at a temperature of 37° C. for 1 day and the mushroom was kept in a thermostat for 2 hours at a temperature of 28° C. in the. Then results were checked.

Pseudomonas aeruginosa = assay: Antimicrobial testing by agar dilution, Pseudomonas aeruginosa
Procedure: as §1

Candida albicans = assay: Antimicrobial testing by agar dilution, Candida albicans
Procedure: as §1

Escherichia coli = assay: Antimicrobial testing by agar dilution, Escherichia coli
Procedure: as §1

Measured: inhibition activity

COc1nc(-c2cccc(O)c2)cc(-c2cccc(C)c2)c1C#N [6-(3-hydroxyphenyl)-2-methoxy-4-(3-methylphenyl)nicotinonitrile]
highest inhibition activity: all assays above
